Results from ChEMBL document CHEMBL1201862, “PubChem BioAssay data set” (2004).
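Interpolation was linear, between the two tested concentrations surrounding the appropriate level; five concentrations were tested over 48 hours in 96-well plates. At the GI50, growth is halved.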 Activity calls are given as the source filed them. No stated cut-off is given here; in the data, active = GI50 up to about 1.1 µM and inactive = higher.

Assays:
Test in all cases: inhibition of tumour cell growth, NCI panel, 48 h
OVCAR-4 = tested on: OVCAR-4
SNB-78 = tested on: SNB-78
IGROV-1 = tested on: IGROV-1
M19-MEL = tested on: M19-MEL
OVCAR-3 = tested on: OVCAR-3
TK-10 = tested on: TK-10
NCI-H226 = tested on: NCI-H226
LOX IMVI = tested on: LOX IMVI
OVCAR-8 = tested on: OVCAR-8
SNB-75 = tested on: SNB-75
UO-31 = tested on: UO-31
UACC-62 = tested on: UACC-62
SF-295 = tested on: SF-295
NCI-H460 = tested on: NCI-H460
HCT-15 = tested on: HCT-15
M14 = tested on: M14
CCRF-CEM = tested on: CCRF-CEM
XF498 = tested on: XF498
HOP-92 = tested on: HOP-92
RPMI-8226 = tested on: RPMI-8226
HT-29 = tested on: HT-29
A549 = tested on: A549
ACHN = tested on: ACHN
Malme-3M = tested on: Malme-3M
HOP-62 = tested on: HOP-62
KM12 = tested on: KM12
SF-268 = tested on: SF-268
SNB-19 = tested on: SNB-19
RXF 393 = tested on: RXF 393
786-0 = tested on: 786-0
UACC-257 = tested on: UACC-257
NCI-H23 = tested on: NCI-H23
DLD-1 = tested on: DLD-1
EKVX = tested on: EKVX
HCT-116 = tested on: HCT-116
HCC 2998 = tested on: HCC 2998
NCI-H522 = tested on: NCI-H522
SK-MEL-2 = tested on: SK-MEL-2
A498 = tested on: A498
SW-620 = tested on: SW-620
SR = tested on: SR
DMS-114 = tested on: DMS-114
SF-539 = tested on: SF-539
LXFL 529 = tested on: LXFL 529
MOLT-4 = tested on: MOLT-4
HL-60 = tested on: HL-60
K562 = tested on: K562
OVCAR-5 = tested on: OVCAR-5
CAKI-1 = tested on: CAKI-1
KM-20L2 = tested on: KM-20L2
U-251 = tested on: U-251
SN12C = tested on: SN12C
DMS-273 = tested on: DMS-273
HOP-18 = tested on: HOP-18
SK-OV-3 = tested on: SK-OV-3
SK-MEL-28 = tested on: SK-MEL-28
SK-MEL-5 = tested on: SK-MEL-5
COLO 205 = tested on: COLO 205
RXF 631 = tested on: RXF 631

Measured: GI50

O.O=C([O-])c1ccccc1Nc1ccccc1C(=O)[O-].[Zn+2]
inactive: OVCAR-4 19.8 µM | SNB-78 37.2 µM | IGROV-1 13.3 µM | M19-MEL 17.3 µM | OVCAR-3 18.8 µM | TK-10 95.1 µM | NCI-H226 31 µM | LOX IMVI 22 µM | OVCAR-8 26.9 µM | SNB-75 18.3 µM | UO-31 > 44.7 µM | UACC-62 19.7 µM | SF-295 17.4 µM | NCI-H460 > 65.9 µM | M14 35.1 µM | CCRF-CEM 24.1 µM | XF498 25.1 µM | HOP-92 18.7 µM | RPMI-8226 48 µM | HT-29 > 70.6 µM | A549 47.1 µM | ACHN > 100 µM | Malme-3M 23.2 µM | HOP-62 > 43.1 µM | KM12 > 100 µM | SF-268 21 µM | SNB-19 17.4 µM | RXF 393 20.6 µM | 786-0 24.1 µM | UACC-257 14.3 µM | NCI-H23 18.2 µM | DLD-1 29.2 µM | EKVX 24.7 µM | HCT-116 38.4 µM | HCC 2998 > 100 µM | NCI-H522 13.2 µM | SK-MEL-2 20.7 µM | A498 19.2 µM | SW-620 23.6 µM | SR 19 µM | DMS-114 17.5 µM | SF-539 37.7 µM | LXFL 529 22.1 µM | MOLT-4 30.5 µM | HL-60 23.7 µM | K562 28.9 µM | OVCAR-5 28.2 µM | CAKI-1 5.08 µM | KM-20L2 94 µM | U-251 18.7 µM | SN12C 83.8 µM | DMS-273 15.7 µM | HOP-18 > 52.6 µM | SK-OV-3 20.4 µM | SK-MEL-28 19.9 µM | SK-MEL-5 25.5 µM | COLO 205 > 49.7 µM
> 60 µM: HCT-15

CCOC(=O)C(C)(C)Oc1ccc2c(C)c(-c3ccc(Cl)cc3)c(=O)oc2c1
inactive: OVCAR-4 > 100 µM | IGROV-1 75.9 µM | M19-MEL 54.2 µM | OVCAR-3 85.1 µM | TK-10 > 100 µM | NCI-H226 14.9 µM | LOX IMVI 34.9 µM | OVCAR-8 > 100 µM | SNB-75 35.8 µM | UO-31 55.5 µM | UACC-62 32.5 µM | SF-295 79.6 µM | NCI-H460 > 100 µM | M14 74.8 µM | CCRF-CEM 14.5 µM | XF498 20.3 µM | RPMI-8226 22.6 µM | HT-29 20.7 µM | A549 37.6 µM | ACHN 98.6 µM | RXF 631 32.6 µM | Malme-3M 33.3 µM | HOP-62 89.1 µM | SF-268 > 100 µM | SNB-19 51.1 µM | RXF 393 > 100 µM | 786-0 > 100 µM | UACC-257 43.8 µM | NCI-H23 19.6 µM | DLD-1 47.6 µM | EKVX 70.3 µM | HCT-116 43 µM | HCC 2998 59 µM | SK-MEL-2 > 100 µM | A498 > 100 µM | SW-620 > 100 µM | SR 27.7 µM | DMS-114 20.4 µM | SF-539 > 100 µM | LXFL 529 34.1 µM | MOLT-4 20 µM | HL-60 18.2 µM | K562 14.7 µM | KM-20L2 33.2 µM | U-251 42.4 µM | SN12C > 100 µM | DMS-273 37.6 µM | SK-MEL-28 > 100 µM | SK-MEL-5 13.4 µM | COLO 205 42.6 µM
34.3 µM: HCT-15

Cc1cc(C)nc(NS(=O)(=O)c2ccc(NC(=O)c3cccc4cc5ccccc5nc34)cc2)n1
21 µM: HCT-15
inactive: OVCAR-4 32.8 µM | SNB-78 25.2 µM | IGROV-1 35.5 µM | M19-MEL 28.2 µM | OVCAR-3 24.8 µM | TK-10 50.2 µM | NCI-H226 23.2 µM | LOX IMVI 22.9 µM | OVCAR-8 33 µM | SNB-75 51.4 µM | UO-31 53.8 µM | UACC-62 20 µM | SF-295 30.1 µM | NCI-H460 34 µM | M14 24.2 µM | CCRF-CEM 21.4 µM | XF498 25.3 µM | RPMI-8226 21.4 µM | HT-29 35.8 µM | A549 34.3 µM | ACHN 44.3 µM | RXF 631 28.5 µM | Malme-3M 23.4 µM | HOP-62 62.7 µM | KM12 24.5 µM | SF-268 16.2 µM | SNB-19 25.7 µM | RXF 393 23.1 µM | 786-0 39.5 µM | UACC-257 37.3 µM | NCI-H23 25.9 µM | DLD-1 27.5 µM | EKVX 69.8 µM | HCT-116 17.2 µM | NCI-H522 18.7 µM | SK-MEL-2 30.3 µM | A498 21.3 µM | SW-620 32.7 µM | SF-539 15.3 µM | LXFL 529 36.1 µM | MOLT-4 19.6 µM | K562 24.5 µM | OVCAR-5 62.2 µM | CAKI-1 50.9 µM | KM-20L2 37.2 µM | U-251 30.6 µM | SN12C 28.5 µM | DMS-273 21.9 µM | SK-OV-3 > 100 µM | SK-MEL-28 31.2 µM | SK-MEL-5 25.5 µM | COLO 205 39.4 µM
